Assay results from article PMC4105567, “Aurora Kinases as Druggable Targets in Pediatric Leukemia: Heterogeneity in Target Modulation Activities and Cytotoxicity by Diverse Novel Therapeutic Agents” (PLoS ONE, 2014).
Read-outs that look alike come from different tables or passages of the source.

Assays:
[1] = tested on: Patient #2 relapsed AML primary leukemia cells; assay: Cytotoxicity assay, primary sample Patient #2; type: cell-based, human; conditions: four days in culture, Alamar blue assay or automated microscopy, one complete study
Protocol: (§1) These include B-ALL (Patient #1), relapsed AML (Patient #2), AML/CML (Patient #3), infant ALL (Patient #4), and initial ALL presenting with secondary AML (Patient #5). […] The diluted sample was then layered on a Ficoll-Paque (GE Healthcare, Piscataway, New Jersey) gradient at a 1∶2 ratio of Ficoll to diluted sample. Samples were then centrifuged 1800 rpm for 20 minutes at room temperature. The buffy coat was removed with a pipette and transferred to a new centrifuge tube and diluted with PBS. After an additional centrifugation at 1200 rpm, the white blood cell pellet was washed with PBS and centrifuged one last time. Cells were re-suspended in Opti-MEM and viable cells were counted using trypan blue (Invitrogen, Life Technologies Corporation, Burlington, Ontario) exclusion on a haemocytometer. An identical protocol was followed for the isolation of white blood cells, referred to as “normal lymphocytes” in the following paragraphs, from healthy volunteers. Samples grown in culture for up to six months were cultured in Opti-MEM medium supplemented with 10% heat inactivated FBS, penicillin/streptomycin and 2-mercaptoethanol.
(§2) For cytotoxicity profiling of Aurora kinase inhibitors against leukemia cell lines, inhibitors or vehicle control (DMSO, Sigma-Aldrich) were diluted in 100 µl of Opti-MEM per well in 96 well plates (Grenier Bio-One, Monroe, North Carolina) in triplicate at final concentrations ranging from 1×10^−6 to 10 µM. 1×10^4 cells per well were seeded and plates were incubated for 4 days. Following incubation for 4 days, cell survival was quantified by Alamar blue assay (Invitrogen) or automated inverted microscopy using the Celigo Cell Cytometer (Cyntellect, San Diego, California). […] During this period of incubation, the absorbance at 570–620 nm was measured (Opsys MR Plate Reader, Dynex Technologies, Chantilly, Virginia) at various time points, depending on the cell line or sample. Percent survival was calculated by comparing the absorbance ratio of the test well to the control well multiplied by 100%, as indicated in the following formula: […]
(§3) For automated inverted microscopy, the number of cells in each well was determined using the direct cell counting application as described previously. Briefly, following adjustment of image acquisition settings for bright-field imaging, the wells containing cells and appropriate dilutions of inhibitors were individually scanned. Based on these images, analysis parameters, including intensity threshold and cell diameter, were modified for optimal inclusion of viable cells in treated and control wells. These parameters were applied for subsequent replicates involving the same leukemia cell line or sample. The percent survival was then calculated as a ratio of the number of cells in treated wells to the number of cells in control wells multiplied by 100%. Given that Aurora kinase inhibitors interfere with cytokinesis, cells that are committed to death may still contain enlarging but intact cytoplasmic content before the eventual loss of cytoplasmic membrane integrity. The accuracy of Alamar blue assay may be, in theory, affected by the timing of these events.

[2] = tested on: CEM T-ALL cell line; assay: Cytotoxicity assay, CEM; type: cell-based, human; conditions: four days in culture, Alamar blue assay or automated microscopy, ± SD, three experiments
Protocol: (§4) Cell lines were cultured in Opti-MEM medium (Gibco, Life Technologies Corporation, Burlington, Ontario) supplemented with 10% heat inactivated fetal bovine serum (FBS) (Gibco), 100 units/ml penicillin and 100 units/ml streptomycin (Gibco) and 0.05 mM 2-mercaptoethanol (Sigma-Aldrich, Oakville, Ontario) in T25 flasks (Nalge Nunc, Rochester, New York) or T75 flasks (Corning Incorporated, Corning, New York). All cell cultures were maintained at 37°C in a humidified incubator with 5% CO2.
as §2, §3

[3] = tested on: Normal Lymphocytes; assay: Cytotoxicity assay, normal lymphocytes; type: cell-based, human; conditions: normal lymphocytes (control for non-leukemia cytotoxicity), four days in culture, ± SD, three experiments
Protocol: as §1, §2, §3

[4] = tested on: HL-60 RA APML cell line; assay: Cytotoxicity assay, HL-60 RA; type: cell-based, human; conditions: APML cell line HL-60 RA, four days in culture, Alamar blue assay or automated microscopy, ± SD, three experiments
Protocol: as §4, §2, §3

[5] = tested on: Bone Marrow Stroma; assay: Cytotoxicity assay, bone marrow stroma; type: cell-based, human; conditions: bone marrow stroma (control for non-leukemia cytotoxicity), four days in culture, ± SD, three experiments
Protocol: as §2, §3

[6] = tested on: Aurora-B; set-up: method as in earlier work; conditions: literature values; ref [10],[22],[27],[40],[44]–[64] as listed per inhibitor in Table 1; read-out: Targets (IC50 Value): Aurora-B; cited from earlier work
[7] = tested on: Patient #5 ALL/AML primary leukemia cells; assay: Cytotoxicity assay, primary sample Patient #5; type: cell-based, human; conditions: primary sample, four days in culture, Alamar blue assay or automated microscopy, one complete study, read-out: IC50, Patient #5 ALL/AML
Protocol: as §1, §2, §3

[8] = tested on: UOCB1 B-ALL cell line; assay: Cytotoxicity assay, UOCB1; type: cell-based, human; conditions: four days in culture, Alamar blue assay or automated microscopy, ± SD, three experiments
Protocol: as §4, §2, §3

[9] = tested on: C1 B-ALL cell line; assay: Cytotoxicity assay, C1; type: cell-based, human; conditions: four days in culture, Alamar blue assay or automated microscopy, ± SD, three experiments
Protocol: as §4, §2, §3

[10] = tested on: NB4 APML cell line; assay: Cytotoxicity assay, NB4; type: cell-based, human; conditions: four days in culture, Alamar blue assay or automated microscopy, ± SD, three experiments
Protocol: as §4, §2, §3

[11] = tested on: MV4-11 AML cell line; assay: Cytotoxicity assay, MV4-11; type: cell-based, human; conditions: AML cell line MV4-11, four days in culture, Alamar blue assay or automated microscopy, ± SD, three experiments
Protocol: as §4, §2, §3

[12] = tested on: KOPN8 B-ALL cell line; assay: Cytotoxicity assay, KOPN8; type: cell-based, human; conditions: four days in culture, Alamar blue assay or automated microscopy, ± SD, three experiments
Protocol: as §4, §2, §3

[13] = tested on: Molt-3 T-ALL cell line; assay: Cytotoxicity assay, Molt-3; type: cell-based, human; conditions: T-ALL cell line Molt-3, four days in culture, Alamar blue assay or automated microscopy, ± SD, three experiments
Protocol: as §4, §2, §3

[14] = tested on: HL-60 APML cell line; assay: Cytotoxicity assay, HL-60; type: cell-based, human; conditions: APML cell line HL-60, four days in culture, Alamar blue assay or automated microscopy, ± SD, three experiments
Protocol: as §4, §2, §3

[15] = tested on: B1 B-ALL cell line; assay: Cytotoxicity assay, B1; type: cell-based, human; conditions: four days in culture, Alamar blue assay or automated microscopy, ± SD, three experiments
Protocol: as §4, §2, §3

[16] = tested on: normal cells versus leukemia cell lines; assay: Comparison of cytotoxicity IC50 values, normal cells versus leukemia cell lines; type: cell-based, human; conditions: normal lymphocytes and bone marrow stroma versus leukemia cell lines of Table 2
Protocol: as §2, §3

[17] = tested on: Patient #4 infant leukemia primary cells; assay: Cytotoxicity assay, primary sample Patient #4; type: cell-based, human; conditions: four days in culture, Alamar blue assay or automated microscopy, one complete study
Protocol: as §1, §2, §3

In the case of `O=C(Nc1c[nH]nc1-c1nc2ccc(CN3CCOCC3)cc2[nH]1)NC1CC1` [AT9283], the IC50 ([1]; Homo sapiens, 96 h) is reported as 80 nM, the IC50 ([2]; Homo sapiens, 96 h) is reported as 0.7 nM and the IC50 ([3]; Homo sapiens, Lymphocyte, 96 h) is reported as 9000 ± 1000 nM. The IC50 ([4]; Homo sapiens, 96 h) was 3 ± 2 nM, the IC50 ([5]; Homo sapiens, 96 h) was 5000 ± 2000 nM and the IC50 [6] was 3 nM. For the same compound, the IC50 ([7]; Homo sapiens, 96 h) was 0.3 nM, the IC50 ([8]; Homo sapiens, UoC-B1, 96 h) was 0.08 nM and the IC50 ([9]; Homo sapiens, 96 h) was 0.6 nM. It also gave an IC50 ([10]; Homo sapiens, 96 h) of 60 ± 30 nM, an IC50 ([11]; Homo sapiens, 96 h) of 3 ± 2 nM and an IC50 ([12]; Homo sapiens, KOPN-8, 96 h) of 2 ± 1 nM. It also gave an IC50 ([13]; Homo sapiens, 96 h) of 0.4 nM, an IC50 ([14]; Homo sapiens, 96 h) of 50 ± 20 nM and an IC50 ([15]; Homo sapiens, 96 h) of 60 ± 30 nM. For the same compound, the “IC50 values for the normal cells compared with IC50 values for the leukemia cell lines (potential therapeutic window)” value [16] was “higher than the IC50 values for the leukemia cell lines” and the IC50 ([17]; Homo sapiens, 96 h) was 5000 nM.
`CCN1CCN(C(=O)Cc2ccc(Nc3ncc(F)c(Nc4ccc(C(=O)Nc5ccccc5Cl)cc4)n3)cc2)CC1` [Aurora A Inhibitor I] showed an IC50 [1] of 1000 nM, an IC50 [2] of 300 ± 200 nM and an IC50 [3] of 3000 ± 500 nM. The IC50 [4] was 1000 ± 600 nM, the IC50 [5] was 4000 ± 500 nM and the IC50 [6] was 3400 nM. It also gave an IC50 [7] of 6 nM, an IC50 [8] of 20 ± 9 nM and an IC50 [9] of 900 ± 200 nM. For the same compound, the IC50 [10] was 700 ± 50 nM, the IC50 [11] was 400 ± 100 nM and the IC50 [12] was 800 ± 50 nM. It also gave an IC50 [13] of 300 ± 200 nM, an IC50 [14] of 2000 ± 1000 nM and an IC50 [15] of 700 ± 100 nM. The “IC50 values for the normal cells compared with IC50 values for the leukemia cell lines (potential therapeutic window)” value [16] was “lower than the IC50 values for the normal cells, but not as pronounced” and the IC50 [17] was 8000 nM.
`CCS(=O)(=O)Nc1ccc2c(c1)/C(=C(/Nc1ccc(CN3CCCCC3)cc1)c1ccccc1)C(=O)N2` [Hesperadin] showed an IC50 ([1]; Homo sapiens, 96 h) of 0.3 nM, an IC50 ([2]; Homo sapiens, 96 h) of less than 0.001 nM and an IC50 ([3]; Homo sapiens, Lymphocyte, 96 h) of 2000 ± 1000 nM. For the same compound, the IC50 ([4]; Homo sapiens, 96 h) was 0.05 nM, the IC50 ([5]; Homo sapiens, 96 h) was 2000 ± 900 nM and the IC50 [6] was 250 nM. The IC50 ([7]; Homo sapiens, 96 h) was 0.01 nM, the IC50 ([8]; Homo sapiens, UoC-B1, 96 h) was less than 0.001 nM and the IC50 ([9]; Homo sapiens, 96 h) was 0.06 nM. The IC50 ([10]; Homo sapiens, 96 h) was 4 ± 1 nM, the IC50 ([11]; Homo sapiens, 96 h) was 0.005 nM and the IC50 ([12]; Homo sapiens, KOPN-8, 96 h) was 0.1 nM. The IC50 ([13]; Homo sapiens, 96 h) was less than 0.001 nM, the IC50 ([14]; Homo sapiens, 96 h) was 6 ± 3 nM and the IC50 ([15]; Homo sapiens, 96 h) was 0.007 nM. The “IC50 values for the normal cells compared with IC50 values for the leukemia cell lines (potential therapeutic window)” value [16] was “higher than the IC50 values for the leukemia cell lines” and the IC50 ([17]; Homo sapiens, 96 h) was 2000 nM.
